Measured values from ChEMBL document CHEMBL5291721, “A preclinical secondary pharmacology resource illuminates target-adverse drug reaction associations of marketed drugs” (Nat Commun, 2023).

Experiments:
[1] = target: Muscarinic acetylcholine receptor M3 (Homo sapiens, UniProt P20309)
[2] = target: 5-hydroxytryptamine receptor 2A (Homo sapiens, UniProt P28223); format: functional, cell-based
Glucocorticoid receptor = target: T1, Glucocorticoid receptor (Homo sapiens, UniProt P04150); format: functional
T1 sequence (P04150 whole entry): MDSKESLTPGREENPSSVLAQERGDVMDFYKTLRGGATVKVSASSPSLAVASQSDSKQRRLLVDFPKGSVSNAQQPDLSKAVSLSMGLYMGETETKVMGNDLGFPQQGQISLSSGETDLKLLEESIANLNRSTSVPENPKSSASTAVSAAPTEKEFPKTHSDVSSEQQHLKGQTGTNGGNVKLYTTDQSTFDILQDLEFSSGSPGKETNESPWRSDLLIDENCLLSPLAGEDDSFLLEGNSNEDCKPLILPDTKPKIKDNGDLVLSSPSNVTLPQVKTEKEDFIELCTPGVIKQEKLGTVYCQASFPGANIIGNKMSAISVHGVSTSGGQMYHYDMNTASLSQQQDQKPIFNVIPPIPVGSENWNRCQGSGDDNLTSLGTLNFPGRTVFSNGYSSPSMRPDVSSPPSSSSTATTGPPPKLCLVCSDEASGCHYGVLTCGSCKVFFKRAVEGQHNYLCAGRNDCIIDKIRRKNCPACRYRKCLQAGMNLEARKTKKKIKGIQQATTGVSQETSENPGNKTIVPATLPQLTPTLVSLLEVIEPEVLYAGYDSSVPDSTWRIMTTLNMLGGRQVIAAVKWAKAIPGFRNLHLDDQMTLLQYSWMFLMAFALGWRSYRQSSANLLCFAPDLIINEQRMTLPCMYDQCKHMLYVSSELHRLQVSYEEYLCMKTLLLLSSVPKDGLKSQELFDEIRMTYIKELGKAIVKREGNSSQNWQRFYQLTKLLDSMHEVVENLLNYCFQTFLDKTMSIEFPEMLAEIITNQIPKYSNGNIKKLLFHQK

[3] = target: Beta-2 adrenergic receptor (Homo sapiens, UniProt P07550)
Estrogen receptor = target: T2, Estrogen receptor (Homo sapiens, UniProt P03372)
T2 sequence (P03372 whole entry): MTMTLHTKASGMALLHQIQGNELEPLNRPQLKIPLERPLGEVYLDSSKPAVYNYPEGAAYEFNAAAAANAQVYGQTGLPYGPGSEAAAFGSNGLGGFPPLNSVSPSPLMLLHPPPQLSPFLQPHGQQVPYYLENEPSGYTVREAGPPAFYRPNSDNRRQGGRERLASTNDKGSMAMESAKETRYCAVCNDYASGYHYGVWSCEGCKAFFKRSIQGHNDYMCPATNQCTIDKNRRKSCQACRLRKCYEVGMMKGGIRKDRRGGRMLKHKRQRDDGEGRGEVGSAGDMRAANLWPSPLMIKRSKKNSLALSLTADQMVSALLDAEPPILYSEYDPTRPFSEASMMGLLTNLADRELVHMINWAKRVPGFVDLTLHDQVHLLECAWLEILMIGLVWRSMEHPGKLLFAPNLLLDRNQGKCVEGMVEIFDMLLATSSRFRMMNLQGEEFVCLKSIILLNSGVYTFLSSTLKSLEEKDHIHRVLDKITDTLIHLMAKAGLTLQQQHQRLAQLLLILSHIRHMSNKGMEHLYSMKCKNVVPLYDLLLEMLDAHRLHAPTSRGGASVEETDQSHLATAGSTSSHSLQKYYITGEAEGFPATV

[4] = target: T3, Corticotropin-releasing factor receptor 2 (Homo sapiens, UniProt Q13324)
T3 sequence (Q13324 whole entry): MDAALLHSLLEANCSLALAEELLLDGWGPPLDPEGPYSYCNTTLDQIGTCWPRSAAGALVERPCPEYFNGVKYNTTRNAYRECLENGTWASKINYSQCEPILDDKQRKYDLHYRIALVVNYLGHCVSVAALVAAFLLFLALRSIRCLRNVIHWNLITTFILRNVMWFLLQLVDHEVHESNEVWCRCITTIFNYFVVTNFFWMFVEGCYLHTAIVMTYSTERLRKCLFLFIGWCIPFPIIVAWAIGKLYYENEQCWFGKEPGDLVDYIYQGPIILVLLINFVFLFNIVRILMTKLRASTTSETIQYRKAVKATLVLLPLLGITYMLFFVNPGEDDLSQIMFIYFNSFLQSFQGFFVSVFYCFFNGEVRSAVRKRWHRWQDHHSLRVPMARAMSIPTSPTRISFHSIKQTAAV

Glucagon receptor = Glucagon receptor (Homo sapiens, UniProt P47871)
[5] = target: T4, Gastric inhibitory polypeptide receptor (Homo sapiens, UniProt P48546)
T4 sequence (P48546 whole entry): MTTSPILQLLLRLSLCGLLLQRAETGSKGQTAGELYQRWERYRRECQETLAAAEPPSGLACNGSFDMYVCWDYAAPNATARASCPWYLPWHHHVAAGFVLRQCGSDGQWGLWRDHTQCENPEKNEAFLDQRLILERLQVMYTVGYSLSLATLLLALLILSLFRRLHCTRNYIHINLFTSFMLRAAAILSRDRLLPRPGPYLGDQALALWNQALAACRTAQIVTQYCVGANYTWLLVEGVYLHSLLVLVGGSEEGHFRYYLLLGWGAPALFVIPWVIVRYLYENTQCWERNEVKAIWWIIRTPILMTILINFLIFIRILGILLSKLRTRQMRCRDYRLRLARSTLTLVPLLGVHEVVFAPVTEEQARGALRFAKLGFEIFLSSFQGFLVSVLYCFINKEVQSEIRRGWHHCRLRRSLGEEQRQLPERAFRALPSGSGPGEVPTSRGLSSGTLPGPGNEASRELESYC

[6] = target: T5, Neuropeptide Y receptor type 2 (Homo sapiens, UniProt P49146)
T5 sequence (P49146 whole entry): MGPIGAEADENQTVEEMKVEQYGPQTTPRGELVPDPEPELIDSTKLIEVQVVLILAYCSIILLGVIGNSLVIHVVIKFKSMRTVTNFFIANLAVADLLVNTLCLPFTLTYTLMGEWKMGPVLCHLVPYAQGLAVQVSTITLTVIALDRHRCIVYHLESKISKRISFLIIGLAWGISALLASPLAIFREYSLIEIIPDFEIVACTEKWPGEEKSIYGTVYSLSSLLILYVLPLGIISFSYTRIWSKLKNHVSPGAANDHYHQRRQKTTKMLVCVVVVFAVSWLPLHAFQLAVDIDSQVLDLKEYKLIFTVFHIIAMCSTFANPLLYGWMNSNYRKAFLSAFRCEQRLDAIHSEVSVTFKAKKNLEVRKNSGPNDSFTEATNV

[7] = target: Neurotensin receptor type 1 (Homo sapiens, UniProt P30989)
Note: assay procedure not described here.

Glucagon receptor, sequence (P47871 whole entry): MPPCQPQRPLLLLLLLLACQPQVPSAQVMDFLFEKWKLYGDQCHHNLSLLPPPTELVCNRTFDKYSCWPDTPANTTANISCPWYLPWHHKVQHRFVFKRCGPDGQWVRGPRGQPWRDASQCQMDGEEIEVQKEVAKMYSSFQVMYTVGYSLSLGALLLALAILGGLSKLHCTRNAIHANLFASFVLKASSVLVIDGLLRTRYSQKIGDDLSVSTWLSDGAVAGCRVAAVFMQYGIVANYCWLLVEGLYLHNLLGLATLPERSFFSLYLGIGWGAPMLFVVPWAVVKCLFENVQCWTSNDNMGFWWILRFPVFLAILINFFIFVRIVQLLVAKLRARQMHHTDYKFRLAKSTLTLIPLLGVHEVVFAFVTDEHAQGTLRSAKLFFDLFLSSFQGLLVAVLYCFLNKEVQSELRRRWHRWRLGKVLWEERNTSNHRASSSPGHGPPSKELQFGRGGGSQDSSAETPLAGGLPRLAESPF
Muscarinic acetylcholine receptor M3, sequence (P20309 whole entry): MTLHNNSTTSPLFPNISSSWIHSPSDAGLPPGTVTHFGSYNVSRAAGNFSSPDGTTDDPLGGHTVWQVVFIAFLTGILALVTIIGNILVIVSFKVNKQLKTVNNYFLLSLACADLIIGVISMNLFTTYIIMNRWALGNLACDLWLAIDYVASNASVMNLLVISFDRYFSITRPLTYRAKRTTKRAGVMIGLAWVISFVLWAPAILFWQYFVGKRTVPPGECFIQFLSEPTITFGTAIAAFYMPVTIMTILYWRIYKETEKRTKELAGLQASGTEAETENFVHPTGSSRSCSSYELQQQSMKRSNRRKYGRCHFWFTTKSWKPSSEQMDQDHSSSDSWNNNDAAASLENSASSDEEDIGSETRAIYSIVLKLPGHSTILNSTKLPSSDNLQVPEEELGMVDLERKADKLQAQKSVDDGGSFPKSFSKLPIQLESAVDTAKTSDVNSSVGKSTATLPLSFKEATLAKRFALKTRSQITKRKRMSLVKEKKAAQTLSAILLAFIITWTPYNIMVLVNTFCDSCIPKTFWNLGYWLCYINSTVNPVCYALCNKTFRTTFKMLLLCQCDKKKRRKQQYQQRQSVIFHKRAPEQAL
5-hydroxytryptamine receptor 2A, sequence (P28223 whole entry): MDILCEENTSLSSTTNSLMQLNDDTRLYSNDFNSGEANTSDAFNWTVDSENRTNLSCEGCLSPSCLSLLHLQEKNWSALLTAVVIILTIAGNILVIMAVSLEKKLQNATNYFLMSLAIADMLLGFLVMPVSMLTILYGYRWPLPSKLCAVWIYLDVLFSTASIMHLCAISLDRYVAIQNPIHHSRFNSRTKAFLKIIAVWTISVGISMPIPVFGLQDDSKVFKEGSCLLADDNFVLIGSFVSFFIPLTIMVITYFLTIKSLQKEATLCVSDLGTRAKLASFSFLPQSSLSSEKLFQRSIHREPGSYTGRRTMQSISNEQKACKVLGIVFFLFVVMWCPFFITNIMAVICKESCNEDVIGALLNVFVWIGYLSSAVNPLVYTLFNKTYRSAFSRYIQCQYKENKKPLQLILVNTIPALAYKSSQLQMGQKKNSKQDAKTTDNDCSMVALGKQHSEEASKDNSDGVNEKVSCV
Beta-2 adrenergic receptor, sequence (P07550 whole entry): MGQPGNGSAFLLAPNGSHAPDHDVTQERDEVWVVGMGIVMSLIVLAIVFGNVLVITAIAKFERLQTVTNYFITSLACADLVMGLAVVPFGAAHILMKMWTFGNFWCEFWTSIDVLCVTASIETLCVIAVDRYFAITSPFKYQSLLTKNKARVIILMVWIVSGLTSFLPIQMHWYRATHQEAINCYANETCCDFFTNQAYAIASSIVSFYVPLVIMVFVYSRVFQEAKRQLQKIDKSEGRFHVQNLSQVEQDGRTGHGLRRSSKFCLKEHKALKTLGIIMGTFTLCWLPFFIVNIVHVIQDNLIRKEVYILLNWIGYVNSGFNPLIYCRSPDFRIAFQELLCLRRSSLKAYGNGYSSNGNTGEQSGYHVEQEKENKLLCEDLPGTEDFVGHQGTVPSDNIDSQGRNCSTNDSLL
Neurotensin receptor type 1, sequence (P30989 whole entry): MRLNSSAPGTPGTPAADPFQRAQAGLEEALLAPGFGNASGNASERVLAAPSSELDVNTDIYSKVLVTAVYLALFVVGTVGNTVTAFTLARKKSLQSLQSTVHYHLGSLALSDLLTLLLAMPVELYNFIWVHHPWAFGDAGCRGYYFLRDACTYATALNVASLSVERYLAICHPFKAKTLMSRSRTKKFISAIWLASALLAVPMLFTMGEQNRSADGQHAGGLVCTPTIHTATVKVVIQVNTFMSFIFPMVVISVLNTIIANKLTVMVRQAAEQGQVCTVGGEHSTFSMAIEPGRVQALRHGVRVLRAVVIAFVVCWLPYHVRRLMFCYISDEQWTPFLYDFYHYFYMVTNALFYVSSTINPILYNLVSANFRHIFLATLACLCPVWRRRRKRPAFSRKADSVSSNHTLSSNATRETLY

SMILES	AC50 [1] [µM]	AC50 [2] [µM]	AC50 (Glucocorticoid receptor) [µM]	AC50 [3] [µM]	AC50 (Estrogen receptor) [µM]	AC50 [4] [µM]	AC50 (Glucagon receptor) [µM]	AC50 [5] [µM]	AC50 [6] [µM]	AC50 [7] [µM]
CC(=N)N1CC[C@H](SC2=C(C(=O)O)N3C(=O)[C@H]([C@@H](C)O)[C@H]3C2)C1	290	> 300	> 300	–	–	–	–	–	–	–
CCc1oc2ccccc2c1C(=O)c1cc(Br)c(O)c(Br)c1 [BENZBROMARONE]	–	–	> 30	> 30	> 30	–	–	–	–	–
C=C(C)[C@@H]1CCC(C)=C[C@H]1c1c(O)cc(CCCCC)cc1O [CANNABIDIOL]	> 30	> 30	> 30	–	–	–	–	–	–	–
COC(=O)[C@H](c1ccccc1Cl)N1CCc2sccc2C1 [CLOPIDOGREL]	–	–	> 30	> 30	> 30	> 30	> 30	> 30	> 30	> 30
C[C@H]1Oc2cc(cnc2N)-c2c(nn(C)c2C#N)CN(C)C(=O)c2ccc(F)cc21 [LORLATINIB]	> 30	> 30	> 30	–	–	–	–	–	–	–
O=C1NC(=O)C(c2ccccc2)(c2ccccc2)N1 [PHENYTOIN]	–	–	> 30	> 10	–	> 30	> 30	> 30	> 30	> 30
CC(C)C[C@H](CN)CC(=O)O [PREGABALIN]	> 30	> 30	> 30	> 30	> 30	> 30	> 30	> 30	> 30	> 30
CNC(=O)c1cc(Oc2ccc(NC(=O)Nc3ccc(Cl)c(C(F)(F)F)c3)c(F)c2)ccn1 [REGORAFENIB]	–	> 30	> 30	–	–	–	–	–	–	–
CCOc1cc(CC(=O)N[C@@H](CC(C)C)c2ccccc2N2CCCCC2)ccc1C(=O)O [REPAGLINIDE]	> 30	> 30	> 30	–	–	–	–	–	–	–
CCCN(CCC)CCc1cccc2c1CC(=O)N2 [ROPINIROLE]	> 30	12	> 30	> 10	–	> 30	> 30	> 30	> 30	> 30
CCCN(CCc1cccs1)[C@H]1CCc2c(O)cccc2C1 [ROTIGOTINE]	> 30	0.46	> 30	–	–	–	–	–	–	–
CC(=O)S[C@@H]1CC2=CC(=O)CC[C@]2(C)[C@H]2CC[C@@]3(C)[C@@H](CC[C@@]34CCC(=O)O4)[C@H]12 [SPIRONOLACTONE]	–	–	5.5	> 10	> 30	> 30	> 30	> 30	> 30	> 30
